Literature values, collected in patent US20050053655A1, “Rapid disintegrating tablets (RDTs) for pharmaceutical use and method for preparing the same” (Pharmaceutical Industry Technology and Development Center, priority 2003, published 2005).

solubility in water: very slightly soluble in water
Structure (SMILES): NC(N)=Nc1nc(CSCCC(N)=NS(N)(=O)=O)cs1 [Famotidine, famotidine]
